Where two headings read alike, the source gives them in different places.
Experiments:
SIRT1 [1] = molecular target: T1, SIRT1 (Homo sapiens, UniProt Q96EB6); assay: fluorescence-based deacetylase assay kit, human recombinant enzyme; type: biochemical; settings: read-out: Inhibition (%±SD) / SIRT1 / 100 μM / 50 μM
T1 sequence (Q96EB6 2-747): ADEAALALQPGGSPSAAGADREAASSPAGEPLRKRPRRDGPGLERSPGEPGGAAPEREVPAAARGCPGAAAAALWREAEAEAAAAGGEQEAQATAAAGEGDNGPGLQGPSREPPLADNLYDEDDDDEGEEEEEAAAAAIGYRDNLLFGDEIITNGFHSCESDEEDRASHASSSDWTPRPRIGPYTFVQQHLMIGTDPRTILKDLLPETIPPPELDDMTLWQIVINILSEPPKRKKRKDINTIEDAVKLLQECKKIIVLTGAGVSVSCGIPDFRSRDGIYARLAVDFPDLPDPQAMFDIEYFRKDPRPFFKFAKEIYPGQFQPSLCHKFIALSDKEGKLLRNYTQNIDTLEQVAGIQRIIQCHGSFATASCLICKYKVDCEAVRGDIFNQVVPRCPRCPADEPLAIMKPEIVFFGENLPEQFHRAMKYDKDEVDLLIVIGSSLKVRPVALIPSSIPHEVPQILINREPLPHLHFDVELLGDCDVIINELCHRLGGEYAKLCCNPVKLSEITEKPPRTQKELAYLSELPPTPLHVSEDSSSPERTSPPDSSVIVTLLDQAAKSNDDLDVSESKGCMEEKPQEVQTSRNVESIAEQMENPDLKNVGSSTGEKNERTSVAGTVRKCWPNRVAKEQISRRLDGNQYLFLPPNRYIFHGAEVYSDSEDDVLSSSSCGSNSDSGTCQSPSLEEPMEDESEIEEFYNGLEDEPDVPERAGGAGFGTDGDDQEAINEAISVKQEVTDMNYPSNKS

SIRT2 [2] = molecular target: T2, SIRT2 (Homo sapiens, UniProt Q8IXJ6); assay: as above; type: biochemical
SIRT2 [3] = molecular target: T3, SIRT2 (Homo sapiens, UniProt Q8IXJ6); assay: biochemical; settings: for inhibition at 50 µM: read-out: Inhibition (%±SD) / SIRT2 / 50 μM
T3 sequence (Q8IXJ6 2-389): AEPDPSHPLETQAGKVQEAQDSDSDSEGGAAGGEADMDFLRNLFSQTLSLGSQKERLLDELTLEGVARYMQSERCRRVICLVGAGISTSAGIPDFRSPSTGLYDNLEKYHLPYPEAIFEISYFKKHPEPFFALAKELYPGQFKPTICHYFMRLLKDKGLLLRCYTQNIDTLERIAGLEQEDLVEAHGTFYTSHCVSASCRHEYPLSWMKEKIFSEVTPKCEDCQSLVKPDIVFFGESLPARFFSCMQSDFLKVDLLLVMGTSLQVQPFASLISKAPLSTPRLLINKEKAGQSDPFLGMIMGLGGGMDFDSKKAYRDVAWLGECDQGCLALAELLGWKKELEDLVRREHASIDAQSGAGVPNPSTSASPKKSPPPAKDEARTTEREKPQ

SIRT1 [4] = molecular target: T1, SIRT1; assay: biochemical; settings: for inhibition at 100 µM: read-out: Inhibition (%±SD) / SIRT1 / 100 μM
SIRT3 [5] = molecular target: T4, SIRT3 (Homo sapiens, UniProt Q9NTG7); assay: biochemical; settings: for inhibition at 100 µM: read-out: Inhibition (%±SD) / SIRT3 / 100 μM; for inhibition at 50 µM: read-out: Inhibition (%±SD) / SIRT3 / 50 μM
T4 sequence (Q9NTG7 102-399): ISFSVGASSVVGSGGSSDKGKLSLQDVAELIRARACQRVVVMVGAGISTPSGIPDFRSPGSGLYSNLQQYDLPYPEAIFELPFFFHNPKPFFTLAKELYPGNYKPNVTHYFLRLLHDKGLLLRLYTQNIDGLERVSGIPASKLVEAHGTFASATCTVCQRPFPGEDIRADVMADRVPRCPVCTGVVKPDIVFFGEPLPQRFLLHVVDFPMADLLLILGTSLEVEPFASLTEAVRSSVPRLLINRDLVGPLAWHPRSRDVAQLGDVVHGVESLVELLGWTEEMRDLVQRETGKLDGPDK

SIRT2 [6] = molecular target: T2, SIRT2; assay: fluorescence-based deacetylase assay kit, human recombinant enzyme; type: biochemical; settings: read-out: Inhibition (%±SD) / SIRT2 / 50 μM / SIRT1 / 100 μM
SIRT3 [7] = molecular target: T4, SIRT3; assay: as above; type: biochemical; settings: read-out: Inhibition (%±SD) / SIRT3 / 50 μM
[8] = read-out: Inhibition (%±SD) / SIRT2 / 100 μM

| inhibition at 50 µM (SIRT2 [3]) [%] | inhibition at 100 µM (SIRT2 [3]; [8]) [%] | inhibition at 100 µM (SIRT1 [4]) [%] | inhibition at 100 µM (SIRT3 [5]) [%] | SMILES | also measured |
| --- | --- | --- | --- | --- | --- |
|  |  |  |  | NC(=O)C1CCCc2c1[nH]c1ccc(Cl)cc21 (racemic) [EX‐527] | inhibition at 50 µM (SIRT1 [1]): 90.2% |
| 72.4 ± 2.88 | 106 ± 4.22 | 22.5 ± 3.74 | 44.7 ± 2.08 | O=C(Nc1ccc2c(c1)C(=O)c1cc(NC(=O)Nc3nccs3)ccc1-2)Nc1nccs1 [SG1, 1,1′‐(9‐Oxo‐9H‐fluorene‐2,7‐diyl)bis[3‐(thiazol‐2‐yl)urea]] | IC50 (SIRT2 [2]): 9.67 µM |
| 21.6 ± 4.19 | 48.5 ± 0.3 | 11.3 ± 1.83 | 17.5 ± 0.57 | Cn1ccc(NC(=O)Nc2ccc3c(c2)C(=O)c2cc(NC(=O)Nc4ccn(C)n4)ccc2-3)n1 [SG2] |  |
| 77.8 ± 1.7 | 84.4 ± 4.07 |  | 18.6 ± 1.54 | O=C(Nc1ccc2c(c1)C(=O)c1cc(NC(=O)Nc3ccon3)ccc1-2)Nc1ccon1 [SG3, 1,1′‐(9‐Oxo‐9H‐fluorene‐2,7‐diyl)bis[3‐(isoxazol‐3‐yl)urea]] | IC50 (SIRT2 [2]): 1.95 µM |
| 67.6 ± 3.95 | 101 ± 7.54 | 24.7 ± 5.02 | 42.5 ± 4.88 | O=C(Nc1ccc2c(c1)C(=O)c1cc(NC(=O)Nc3ccccn3)ccc1-2)Nc1ccccn1 [SG4, 1,1′‐(9‐oxo‐9H‐fluorene‐2,7‐diyl)bis[3‐(pyridin‐2‐yl)urea]] | IC50 (SIRT2 [2]): 6.65 µM |
|  | 102 ± 8.24 | 71.2 ± 5.29 | 55.6 ± 4.42 | O=C(COc1ccc2c(c1)C(=O)c1cc(OCC(=O)Nc3nccs3)ccc1-2)Nc1nccs1 [SG5, 2,2′‐[(9‐Oxo‐9H‐fluorene‐2,7‐diyl)bis(oxy)]bis[N‐(thiazol‐2‐yl)acetamide]] | inhibition at 50 µM (SIRT2 [6]): 62.4%; inhibition at 50 µM (SIRT1 [4]; read-out: Inhibition (%±SD) / SIRT1 / 50 μM): 53.2 ± 1.62%; inhibition at 50 µM (SIRT3 [5]): 51.7 ± 1.56% |
| 64 ± 3.84 | 65.6 ± 3.34 | 27.8 ± 1.31 | 36.8 ± 2.26 | Cn1ccc(NC(=O)COc2ccc3c(c2)C(=O)c2cc(OCC(=O)Nc4ccn(C)n4)ccc2-3)n1 [SG6] | inhibition at 50 µM (SIRT3 [5]): 20.5 ± 7.34% |
|  | 21.5 ± 2.37 |  |  | O=C(COc1ccc2c(c1)C(=O)c1cc(OCC(=O)Nc3ccon3)ccc1-2)Nc1ccon1 [SG7] |  |
|  | 103 ± 2.61 | 13.2 ± 2.22 | 83.07 ± 0.27 | O=C(COc1ccc2c(c1)C(=O)c1cc(OCC(=O)Nc3ccccn3)ccc1-2)Nc1ccccn1 [SG8, 2,2′‐[(9‐Oxo‐9H‐fluorene‐2,7‐diyl)bis(oxy)]bis[N‐(pyridin‐2‐yl)acetamide]] | inhibition at 50 µM (SIRT2 [6]): 99.8%; inhibition at 50 µM (SIRT3 [7]): 76.4% |
| 51 ± 2.28 | 71.4 ± 6.51 |  | 90 ± 3.41 | O=C(CSc1ccccc1)Nc1ccc2c(c1)C(=O)c1cc(NC(=O)CSc3ccccc3)ccc1-2 [SG9, N,N′‐(9‐Oxo‐9H‐fluorene‐2,7‐diyl)bis[2‐(phenylthio)acetamide]] | inhibition at 50 µM (SIRT3 [7]): 85% |
|  | 18.1 ± 1.88 |  |  | Cn1ccnc1SCC(=O)Nc1ccc2c(c1)C(=O)c1cc(NC(=O)CSc3nccn3C)ccc1-2 [SG10] |  |
|  | 17.2 ± 6.1 |  |  | Cc1cc(C)nc(SCC(=O)Nc2ccc3c(c2)C(=O)c2cc(NC(=O)CSc4nc(C)cc(C)n4)ccc2-3)n1 [SG11] |  |
|  | 85.5 ± 5.68 | 88.4 ± 4.45 | 95.84 ± 0.52 | CN(CC(=O)Nc1ccc2c(c1)C(=O)c1cc(NC(=O)CN(C)c3ccccc3)ccc1-2)c1ccccc1 [SG12, N,N′‐(9‐oxo‐9H‐fluorene‐2,7‐diyl)bis{2‐[methyl(phenyl)amino]acetamide}] | inhibition at 50 µM (SIRT2 [6]): 74.7%; inhibition at 50 µM (SIRT3 [7]): 70.1% |
|  |  |  |  | Cc1ccc(C(=O)Nc2ccc(S(=O)(=O)O)c3cc(S(=O)(=O)O)cc(S(=O)(=O)O)c23)cc1NC(=O)c1cccc(NC(=O)Nc2cccc(C(=O)Nc3cc(C(=O)Nc4ccc(S(=O)(=O)O)c5cc(S(=O)(=O)O)cc(S(=O)(=O)O)c45)ccc3C)c2)c1 [Suramin] | inhibition at 100 µM (SIRT2 [3]; read-out: % inhibition): 98.52 ± 0.45%; inhibition (SIRT2 [3]; [8]): 78.92 ± 0.67% |

Source: PMC11610652 (Archiv Der Pharmazie, 2024)
